Patent US20220354845A1, “METHODS FOR ENHANCING DNA DAMAGE AND APOPTOSIS OF LEUKEMIC CELLS” (Thomas Jefferson University, priority 2019, published 2022)

Columns and labels:
[1] = tested on: primary blasts from AML patient #22324; experiment: CAA (PLA) between EdU-labeled DNA and ATRIP at sites of DNA damage; format: cell-based, human; conditions: GSK343 12 hours, then 10 μM Bleomycin 1 hr
Method: Cells were labeled with EdU for 10 minutes and treated with 10 μM Bleomycin (Bleo) for 1 hr. CAA (PLA, dark) was performed between EdU and ATRIP protein. Chromatin assembly assay: Cells were grown on chamber slides, pulse-labeled with 5 μM EdU and fixed at room temperature with 4% formaldehyde in PBS for 15 min, washed with PBS, and permeabilized with 0.3% Triton for 15 min. Cells were subjected to Click-iT reaction with biotin-azide for 30 min. The PLA reactions (Olink) between the anti-biotin antibody and antibodies to other proteins were performed as described by Olink. Following PLA, cells were immunostained with anti-biotin Alexa Fluor 488 antibody to control the specificity of CAA. The results of CAA experiments shown in FIG. 1A were quantified by counting the number of PLA signals per EdU-labeled nuclei in 50 cells of each of the three independent experiments.

[2] = tested on: THP-1 cells; experiment: DNA damage by γ-H2A.X foci and western blot in THP-1 cells; format: cell-based, human; conditions: for number of γ-H2A.X foci compared to untreated cells: single agent, Bleomycin 5 μM, Doxorubicin 0.1 μM, Etoposide 0.1 μM
Method: DNA damage evaluation by analysis of γ-H2A.X foci. […] Lower panels show γ-H2A.X signals only. […] In FIG. 6C, DNA damage was assessed by γ-H2A.X western blot in drug-treated THP-1 cell extracts.
(§1) FIG. 10B is a series of images showing immunofluorescence microscopy of γ-H2A.X foci in untreated or drug-treated (Doxorubicin 0.1 μM, palbociclib 500 nM) THP-1 cells. γ-H2A.X light gray, DAPI dark gray. In FIG. 10C, apoptosis was analyzed by Caspase 3/7 activity by flow cytometry.
The role of chromatin structure in cytotoxic agent-induced DNA damage was also assessed by investigating the formation of γ-H2A.X foci by confocal microscopy.

[3] = tested on: Y641 and A677 mutants of EZH2; conditions: cited from earlier work
[4] = tested on: THP-1 cells; experiment: Apoptosis by Caspase-3/7 activity (flow cytometry) in THP-1 cells; format: cell-based, human
Method: (§2) FIGS. 9A-9B illustrate apoptosis of drug-treated cells. THP-1 (FIG. 9A) and primary CD34+ AML samples (FIG. 9B) were left untreated (CNTR), treated with Doxorubicin alone (0.1 μM), Etoposide alone (0.5 μM) or in combination with the EZH2 inhibitor GSK-126 (0.5 μM) for 48 hours. Apoptosis was analyzed by Caspase-3/7 activity by flow cytometry.
as §1, with “FIGS. 10A-10C illustrate that treatment with the CDK4/CDK6 inhibitor palbociclib suppresses Doxorubicin-induced DNA damage. […] FIG. 10B” for “FIG. 10B”
THP-1 cells were treated with Palbociclib (500 nM) for 24 hours to induce a G1-arrest. […] Anova ***p<0.001; (Right) Apoptosis analyzed by Caspase 3/7 activity by flow cytometry. Mean+/−SEM. Anova; *p<0.1 **p<0.01
To assess whether cell cycle synchronization through pre-conditioning with a CDK4/6 inhibitor prior to treatment, a subsequent study was performed in which THP-1 cells were treated with Palbociclib (500 nM) for 24 hours to induce a G1-arrest. […] (FIG. 15, Right) Apoptosis of treated cells was also analyzed by Caspase 3/7 activity by flow cytometry.

[5] = tested on: primary CD34+ AML samples; experiment: Apoptosis by Caspase-3/7 activity (flow cytometry) in primary CD34+ AML samples; format: cell-based, human; conditions: CD34+ AML cells, co-treatment GSK-126 (0.5 μM) and Doxorubicin (0.1 μM), 48 hours
Method: as §2

[6] = tested on: primary ASXL1-mutated AML sample; experiment: γ-H2A.X foci in primary ASXL1-mutated AML sample; format: cell-based, human; conditions: CD34+ cells with frameshift ASXL1 mutation (G646fs*12); co-treatment with GSK126 (5 nM), 24 hours
Method: FIGS. 13A-13B illustrate accumulation of H3K27me3 on nascent DNA of a human primary ASXL1 mutated AML sample. In FIG. 13A, DNA was labeled with EdU for 15 minutes. Following conjugation with biotin, CAA was performed between nascent DNA (biotin) and H3K27me3. PLA (bright gray), Edu (biotin; light gray), DAPI; dark gray). Lower panels show PLA signals only. […] DNA Damage evaluation by analysis of γ-H2A.X foci. […] Immunofluorescence microscopy of γ-H2A.X foci (representative cells). γ-H2A.X light gray, DAPI, dark gray. Lower panels show γ-H2A.X signals only.
Mutations of ASXL1 are more frequent than EZH2 mutations and may cause a decrease in global H3K27me3 level and in the accumulation of this marker on nascent DNA. The H3K27me3 marker was not detected on Edu-labeled, nascent DNA of CD34+ […] cells carrying a frameshift ASXL1 mutation causing a premature termination (G646fs*12) in ˜50% of the cells, favoring a state of ‘open’ chromatin (FIGS. 13A and 13B).

[7] = tested on: THP-1 and human CD34+ primary AML cells; experiment: DNA content analysis and myeloid marker flow cytometry of AML cells; format: cell-based; conditions: GSK126 alone
[8] = tested on: H3K27me3 in THP-1 cells; experiment: H3K27me3 levels in THP-1 cells (CAA, western blot, ChIP-seq); format: cell-based, human
Method: (§3) FIGS. 4A-4B illustrate the ability of EZH2 inhibitor to affect H3K27me3 binding. […] Cells were labeled with EdU for 15 minutes. CAA was performed with H3K27me3 antibody. Following PLA, cells were immunostained for EdU.
(§4) Box plot of ChIP-seq read density is shown. FIG. 14B is an example showing the COL93A locus.
(§5) Chromatin assembly assay: Cells were grown on chamber slides, pulse-labeled with 5 μM EdU and fixed at room temperature with 4% formaldehyde in PBS for 15 min, washed with PBS, and permeabilized with 0.3% Triton for 15 min. Cells were subjected to Click-iT reaction with biotin-azide for 30 min. The PLA reactions (Olink) between the anti-biotin antibody and antibodies to other proteins were performed as described by Olink. Following PLA, cells were immunostained with anti-biotin Alexa Fluor 488 antibody to control the specificity of CAA. The results of CAA experiments shown in FIG. 1A were quantified by counting the number of PLA signals per EdU-labeled nuclei in 50 cells of each of the three independent experiments. The nature of the results in the rest of the figures alleviated the need to quantify the results of these assays.
(§6) Since DNA-damaging agents (eg., Doxorubicin) preferentially induce double strand breaks (DSBs) in more de-condensed regions of chromatin, some epigenetic inhibitors may render leukemic cells more susceptible to DNA damage. […]

[9] = tested on: THP-1 cells; experiment: RAD51 foci formation in Doxorubicin-treated THP-1 cells; format: cell-based, human; conditions: GSK126 5 μM, Doxorubicin 0.1 μM; 12, 24, 36, 72 hrs
Source text: FIG. 7 illustrates the kinetics of RAD51 foci formation in Doxorubicin-treated THP-1 cells. […] RAD51 foci were detected by immunofluorescence in the pre-washed cultures (12 hrs), and at 24, 36, and 72 hrs post Doxorubicin washing.

[10] = tested on: THP-1 cells; experiment: ChIP-seq of γ-H2A.X in THP-1 cells; format: cell-based, human; conditions: THP-1 cells co-treated with GSK126
Source text: as §4
Without wishing to be bound by theory, a more relaxed chromatin structure may be more susceptible to DNA damage.

[11] = tested on: THP-1 cells; experiment: Comet assay in drug-treated THP-1 cells; format: cell-based, human; conditions: co-treatment with GSK126 and Doxorubicin
[12] = tested on: primary CD34+ AML cells; experiment: γ-H2A.X foci and comet assay in primary CD34+ AML cells; format: cell-based, human; conditions: co-treated with GSK126 (5 μM) and Doxorubicin (0.3 or 0.1 μM), 24 h
Source text: FIGS. 8A-8D illustrate that inhibition of EZH2 enhances DNA damage as assessed by γ-H2A.X foci and comet assay in primary CD34+ AML cells. […] Immunofluorescence microscopy of γ-H2A.X foci (representative cells). γ-H2A.X light gray, DAPI, dark gray. Lower panels show γ-H2A.X signals only. […] Immunofluorescence microscopy of γ-H2A.X foci (representative cells). γ-H2A.X light gray, DAPI, dark gray. Lower panels show γ-H2A.X signals only.

[13] = tested on: H3K27me3 in AML primary cells; experiment: H3K27me3 on nascent DNA of AML primary cells (CAA, western blot); format: cell-based, human; conditions: GSK126 for 12 hours
Method: as §3, §5, §6

## CCCc1cc(C)[nH]c(=O)c1CNC(=O)c1cc(-c2ccnc(N3CCN(C)CC3)c2)cc2c1cnn2C(C)C [GSK343]
[1]
  recruitment of ATRIP to sites of DNA damage induced by bleomycin: significantly increased recruitment of ATRIP

## CCOC(=O)CCNc1cc(N2CCc3ccccc3CC2)nc(-c2ccccn2)n1 [GSKJ4]
[2]; THP-1 cells treated with GSKJ4
  enhancement of Doxorubicin-induced DNA damage: did not enhance

## Cc1cc(C)c(CNC(=O)c2cc(-c3ccc(CN4CCOCC4)cc3)cc3c2cnn3C2CCCC2)c(=O)[nH]1 [EPZ005687]
[3]
  inhibition of the Y641 and A677 mutants of EZH2: can also inhibit

## bleomycin
[2]; 24 hours
  number of γ-H2A.X foci compared to untreated cells: markedly increased

## CC[C@H](C)n1cc(C)c2c(C(=O)NCc3c(C)cc(C)[nH]c3=O)cc(-c3ccc(N4CCNCC4)nc3)cc21 [GSK126]
[4]; THP-1, co-treatment GSK-126 (0.5 μM) and Doxorubicin (0.1 μM), 48 hours
  apoptosis (Caspase-3/7 activity): enhanced apoptosis
[4]; THP-1 cells ex vivo, GSK126 with Ara-C
  DNA damage/apoptosis induced by treatment with Ara-C only: did not enhance
[5]
  apoptosis (Caspase-3/7 activity): enhanced apoptosis
[2]; co-treatment of GSK126 (5 μM) with bleomycin, Doxorubicin or etoposide, 24 hours, vs cytotoxic agent alone
  number and mean fluorescence intensity of γ-H2A.X foci and γ-H2A.X levels: further increased
[6]
  Doxorubicin-induced DNA damage (γ-H2A.X foci): did not increase
[7]; 48 hrs, THP-1 and CD34+ primary AML cells
  proliferation of AML cells (DNA content analysis): no effect
[7]; 5 days, AML #013 cells
  differentiation of AML cells (myeloid marker expression): no effect
[8]; GSK126 for 12 hours
  chromatin conformation (H3K27me3 on nascent DNA, CAA): switching the chromatin conformation from “closed” to “open”
[8]; GSK126 for 24 hours
  global levels of H3K27me3 (ChIP-seq): marked decrease
[9]
  number of RAD51 foci (DSBs repair) following Doxorubicin-induced DNA damage: not diminished
[10]
  Doxorubicin-induced γ-H2A.X signals (ChIP-seq): increased
[11]
  DNA damage by comet assay: Increased DNA damage
[12]
  DNA damage (γ-H2A.X foci and comet assay): Higher levels of DNA damage
[13]
  chromatin conformation (H3K27me3 on nascent DNA, CAA): switching the chromatin conformation from “closed” to “open”

## COc1cc([C@@H]2c3cc4c(cc3[C@@H](O[C@@H]3O[C@@H]5CO[C@@H](C)O[C@H]5[C@H](O)[C@H]3O)[C@H]3COC(=O)[C@H]23)OCO4)cc(OC)c1O [etoposide]
[2]; 24 hours
  number of γ-H2A.X foci compared to untreated cells: markedly increased

## COc1cccc2c1C(=O)c1c(O)c3c(c(O)c1C2=O)C[C@@](O)(C(=O)CO)C[C@@H]3O[C@H]1C[C@H](N)[C@H](O)[C@H](C)O1 [Doxorubicin]
[2]; 24 hours
  number of γ-H2A.X foci compared to untreated cells: markedly increased
